The test system of one series is Hair Follicle Stem Cells. The experiment in a line: Activation of hair follicle stem cells on modified hydrogels (Sox2, BMP-6 release). The series is classed as cell-based, Mouse. Conditions: hydrogel 73 kPa covalently modified.
Series [1] relates to hMSCs. The experiment in a line: STRO-1 stemness marker expression in hMSCs (immunostaining, ImageJ quantification). The series is classed as cell-based, Human. Particulars: SEQ ID NO: 1 to 49 tested in combination with a bioactive carrier (titanium, ceramics, PEEK, hydrogel, etc.). Summed up:
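hMSCs exposed to GFR-binding peptides in solution or grafted on surfaces; cells fixed in 4% paraformaldehyde, permeabilized, stained with Stro-1 antibody (1 h, 37° C) plus Alexa Fluor secondary and DAPI. Stro-1 positive contact number and area quantified by thresholded image analysis, at least 30 cells per condition.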

Series [2] has as its system hMSCs. The series is described as follows: Chondrocyte differentiation of hMSCs on modified hydrogels (Sox9, Aggrecan). The class given is cell-based, Human. Conditions: 96 hours, hydrogel 14 kPa covalently modified; for Aggrecan gene expression: semi-quantitative RT-PCR. The procedure:
(§1) Total RNA was extracted by using the RNeasy total RNA kit (Qiagen®) according to the manufacturer's instructions. Purified total RNA was used as a template in order to make cDNA by a reverse transcription reaction (Gibco Brl®) with random primers (Invitrogen®). The cDNA was then used as a template for a real-time PCR amplification in the presence of SYBR green reagents (Bio-Rad®) by using a thermocycler (iCycler, Biorad®). Data were analyzed with the iCycler IQ™® software and compared by the ΔΔCt method. Briefly, the mean Ct value of the target gene was normalized to its averaged Ct values of the housekeeping gene (HPRT) to give a ΔCt value, which was then normalized to a control sample to obtain a ΔΔCt value.
Total RNA was extracted by using the RNeasy Mini Kit (Qiagen) and […] RNA was used for cDNA synthesis with AMV kit (Invitrogen®) according to the manufacturer' instructions. Semi-quantitative reverse transcriptase-polymerase chain reaction (RT-PCR) was performed with Taq DNA Polymerase (Invitrogen®) in a thermocycler (Bio-Rad®). The cDNA input was normalized to […] (HPRT). The PCR products were analyzed on 2% agarose gels. For the Aggrecan gene, the PCR bands were densitometrically quantified by using the BioCapt software (Vilber). Values were normalized to HPRT, and results were reported as relative gene expression.
For that a semi-quantitative RT-PCR was performed as described in the Methods section for the Aggrecan gene and a Quantitative Real Time PCR for Sox9.

The test system of another series is Neurons. The series is described as follows: Neuron growth on modified titanium (dendrite growth, GAP43 Q-PCR). The class given is cell-based. Conditions: covalently modified titanium. The procedure: as §1
Neurons were cultured on native titanium (control) and on titanium covalently modified with neurogenic peptides (SEQ ID NO: 49). […] To further confirm this the expression of the Growth Associated Protein 43 (GAP43) gene was verified for neuron cells cultured on materials covalently modified with neurogenic peptides (SEQ ID NO: 49).

Series [3] in a line: Stability of non-covalent peptide coating on apatite ceramics / type-I collagen (fluorescent peptides). The series is classed as physicochemical. Conditions: non-covalent coating on apatite ceramics (SEQ ID NO: 23) or type-I collagen sponge (SEQ ID NO: 22); 3, 7 or 10 days. On the procedure: Non-covalent modifications of the materials were performed in Air Atmosphere at room temperature. The non-covalent coating strategy consisted in using a mixture of inducing peptide (SEQ ID NO: 23; concentration of 1×10^−3M) with an apatite ceramics implant or a mixture of inducing peptide (SEQ ID NO: 22; concentration of 1×10^−3M) with a type-I collagen sponge. The non-covalently coated conventional materials were characterized by using fluorescent peptides (Here SEQ ID NO: 22 and 23 covalently bound to fluorescein isothiocyanate (FITC), FIG. 6). The results shown here in FIG. 6 were obtained from experiments performed with apatite ceramics and a type-I collagen sponge. […] Indeed, after 3, 7 or 10 days, the osteogenic peptides were still coupled to the ceramics or the type-I collagen (FIGS. 7a and b).

In series [4] the test system is Human umbilical-vein endothelial cells. The series is described as follows: Angiogenesis: tube-like structure formation of HUVECs on modified PET. Conditions: 18 hours, covalently modified PET. The class given is cell-based.
The test system of series [5] is Human Hematopoietic Stem Cells. The experiment in a line: CD-34+ stemness marker expression (immunostaining, ImageJ quantification). The series is classed as cell-based. Conditions: peptides grafted on a PET surface; 48 hours.
Series [6] has as its system Human umbilical-vein endothelial cells. The experiment in a line: Endothelialization: adherent junctions (CD31) of HUVECs on modified PET. The series is classed as cell-based. Conditions: 36 hours, covalently modified PET. On the procedure:
An increase in the area of the adherent junctions (CD31) was observed after 36 hours of culture on the covalently modified PET (FIG. 13).

Series [7] relates to Human Mesenchymal Stem Cells (hMSCs). The series is described as follows: Osteogenic differentiation of human mesenchymal stem cells (Runx2, Osterix immunostaining, ALP activity). The series is classed as cell-based. Conditions: 1 week, type-I collagen sponge coupled with peptide.
The test system of series [8] is mouse mesenchymal pre-osteoblastic cells (MC3T3-E1). The experiment in a line: Osteogenic differentiation of osteoblast progenitors (extracellular matrix, Osteopontin, Runx2 Q-PCR). Conditions: 48 hours. The series is classed as cell-based. The procedure:
The surface profiler system is a non-contact optical profiler that measures a wide range of surface heights. The vertical scanning interferometry mode allows for the measurement of rough surfaces and steps of up to several micrometers. This mode was used in order to measure the thickness of the extracellular matrix produced by the cells. First, after 24 h of culture, the cells were fixed with paraformaldehyde in PBS (4%) for 30 minutes at 4° C. and the samples were dehydrated in increasing concentrations of ethanol (30, 70, 80, 90, 95 and 100%) and critical-point dried. To evaluate the extent of the newly synthesized extracellular matrix, a spatula was used to scratch the surface of the materials. The samples were then metallized for 10 sec with gold or titanium before being analyzed.
Total RNA was extracted by using the RNeasy total RNA kit (Qiagen®) according to the manufacturer's instructions. Purified total RNA was used as a template in order to make cDNA by a reverse transcription reaction (Gibco Brl®) with random primers (Invitrogen®). […] Data were analyzed with the iCycler IQ™® software and compared by the ΔΔCt method. […]
The effect of these GFR-binding compounds as defined herein (SEQ ID NO: 33) on the differentiation of osteoblast progenitors was evaluated. […]

AASKASSVPEKLSSLSILFF [SEQ ID NO: 41]: in the series on Hair Follicle Stem Cells, the “BMP-6 release in the cell culture medium” value is reported as “decrease” and the Sox2 protein expression entry is given as “increase”. Besides, in the series on hMSCs [1], the STRO-1 expression is 28%.

AVPKASSAPTKLEPLPIVYY [SEQ ID NO: 36]: in the series on hMSCs [2], the “expression of the Sox9 protein” value is “observed” and the Aggrecan gene expression result is recorded as “increased expression”. Besides, the STRO-1 expression in the series on hMSCs [1] was determined as 21%.

Consider GIPEPSSVPAKMSPISILYI [SEQ ID NO: 49], for which, in the series with Neurons (6 hours), the “cell-cell contacts via dendrite growth” value was “rapid establishment”. In the series with Neurons (48 hours, Q-PCR), the GAP43 gene expression entry is listed as “high level of expression”. Also, the STRO-1 expression in the series on hMSCs [1] turned out to be 19%.

For the sequence GSAGPSSVPEKMSSLSILFF [SEQ ID NO: 42], in the series with Hair Follicle Stem Cells, the “BMP-6 release in the cell culture medium” value is “decrease” and the Sox2 protein expression entry is listed as “increase”. For the same sequence, in the series with hMSCs [1], the STRO-1 expression is reported as 26%.

“GTPGPHVTKPTSVPTKLSAISMLYL (GTPGPHVTKPTXVPTKLSAISMLYL; GFR-binding peptide; MOD_RES (12)..(12): Xaa is C or S) [SEQ ID NO: 23]”: in series [3], the “release of peptides over time” value was “no significant release”. The STRO-1 expression with hMSCs [1] is reported as 28%.

For KIPKASSVSQELEPLTILYY [SEQ ID NO: 37], in the series on hMSCs [2], the “expression of the Sox9 protein” value is given as “observed” and the Aggrecan gene expression entry was “increased expression”. Moreover, in the series on hMSCs [1], the STRO-1 expression was determined as 17%.

On to KVGKASSVPTKLSNITMQIM [SEQ ID NO: 39], for which, in series [4], the “formation of tube-like structures” value is on record as “observed”. Further, in the series with hMSCs [1], the STRO-1 expression is 32%.

As for “RVPSTSSVPTELSAISVLYL (GFR-binding peptide) [SEQ ID NO: 1071]”, the “CD34+ Expression” value in series [5] came out at 29%.

Take STPPTSSSRVRLRSVKVAKV [SEQ ID NO: 38]: the “area of the adherent junctions (CD31)” value in [6] was “increase”. In addition, the STRO-1 expression with hMSCs [1] is 34%.

For “WWFWGAAPASSSVPTRLSPISVLYK (WWFWGAAPASXXVPTRLSPISVLYK; GFR-binding peptide; MOD_RES (11)..(12): Xaa is C or S) [SEQ ID NO: 32]”, the STRO-1 expression with hMSCs [1] was 27%. The ALP activity entry in series [7] is on record as “increase”.

Take “WWFWGKASKASSVPTKLSAISMLYL (WWFWGKASKAXXVPTKLSAISMLYL; GFR-binding peptide; MOD_RES (11)..(12): Xaa is C or S) [SEQ ID NO: 33]”: the “differentiation of osteoblast progenitors” value in [8] (apatite ceramics or type-I collagen sponge coupled with peptide) is reported as “differentiated into mature osteoblasts”. The “production of extracellular matrix proteins such as Osteopontin (OPN)” value in [8] (vs native type-I collagen sponge, immunofluorescence) is listed as “extensive amounts”. The STRO-1 expression in the series on hMSCs [1] is reported as 26%.

Take “WWFWGSAGPSSTPTKMSAISMLYL (WWFWGSAGPXXTPTKMSAISMLYL; GFR-binding peptide; MOD_RES (10)..(11): Xaa is C or S) [SEQ ID NO: 22]”: the “release of peptides over time” value in series [3] is given as “no significant release”. In addition, the STRO-1 expression in the series on hMSCs [1] is 29%.

These data come from patent US11578110B2, “Compounds for inducing tissue formation and uses thereof” (HISTIDE AG, priority 2015, dated 2023).
